This data set can be described thus: Human HepG2 cell viability assay in 384 well format. The arrangement: dose 125 nL, time 70.5 hour; cytotoxicity at 70.5 h: concentration not given beside the values. The format is toxicity, cell-based. To be noted: HepG2 cells, read-out: Inhibition.

Consider `CCNC(=O)CN1CCC(c2cc(OC)cc(OC)c2)C1` (stereo not drawn), for which the cytotoxicity at 70.5 h was -10.7%.

`CC(C)N(Cc1cccc(Cl)c1)Cc1nnsc1Cl`: the cytotoxicity at 70.5 h was -2.95%.

With `CCN(CC1CCOC1)C(=O)c1ccc(COc2ccccc2C#N)o1` (stereo not drawn), the cytotoxicity at 70.5 h was -3.17%.

For `COCCNS(=O)(=O)c1ccc(Cl)c(C(=O)N(C)Cc2ccsc2)c1`, the cytotoxicity at 70.5 h is -5.32%.

As for `CS(=O)(=O)NCC1CCCN(c2ccc(C#N)cn2)C1` (stereo not drawn), the cytotoxicity at 70.5 h was -8.07%.

Regarding `CS(=O)(=O)NC1CCCN(c2ccc(C#N)cn2)C1` (stereo not drawn), the cytotoxicity at 70.5 h was -6.77%.

Take `O=C(NCCNc1ncccn1)N1CCc2ccccc2C1`: the cytotoxicity at 70.5 h was determined as 8.69%.

Consider `CCN(Cc1ccc2c(c1)OCO2)C(=O)c1ccc(=O)n(C)c1`, for which the cytotoxicity at 70.5 h was -0.838%.

As for `CCOc1cccc(CNc2cncc(-n3cccn3)n2)c1`, the cytotoxicity at 70.5 h was -8.59%.

Turning to `Fc1cccc(CNc2cncc(-n3cccn3)n2)c1`, the cytotoxicity at 70.5 h is -6.71%.

On to `N#Cc1ccccc1N1CCCN(CC(=O)Nc2ccc(Cl)cn2)CC1`, for which the cytotoxicity at 70.5 h is -2.38%.

On to `Cn1c(NC(=O)CCS(=O)(=O)C2CCCC2)nc2cc(Cl)ccc21`, for which the cytotoxicity at 70.5 h is -9.03%.

Consider `O=C(CC1CCCC1)NCCn1nc2ccccn2c1=O`, for which the cytotoxicity at 70.5 h is -2.13%.

In the case of `CC1CCN(C(=O)C2CCCN(C(=O)Nc3ccccn3)C2)CC1` (stereo not drawn), the cytotoxicity at 70.5 h is -9.24%.

For the compound `Cc1nn(C)c2ncc(S(=O)(=O)N3CCCN4CCCC4C3)cc12` (stereo not drawn), the cytotoxicity at 70.5 h is -2.09%.

Take `Cc1nn(C)c2ncc(S(=O)(=O)N3CCCC(C(N)=O)C3)cc12` (stereo not drawn): the cytotoxicity at 70.5 h is -6.46%.

With `CN(C)c1ncccc1CNC(=O)N1CCN(C)c2ccccc2C1`, the cytotoxicity at 70.5 h is -8.8%.

In the case of `COc1cccc(N2CCC(CNC(=O)CN3CSCC3=O)C2)c1` (stereo not drawn), the cytotoxicity at 70.5 h is -9.99%.

In the case of `CCCc1cc(NCCn2cccn2)n2ncnc2n1`, the cytotoxicity at 70.5 h was -6.07%.

With `Cc1ncc(CN(C)C(=O)c2ccc(N3CCOCC3)c(F)c2)s1`, the cytotoxicity at 70.5 h is -6.71%.

For the compound `Cc1nn(C)c2ncc(S(=O)(=O)N3CCN4CCCC4C3)cc12` (stereo not drawn), the cytotoxicity at 70.5 h was -7.68%.

As to `Cn1ccnc1COc1ccc(COC(=O)C2CCCO2)cc1` (stereo not drawn), the cytotoxicity at 70.5 h came out at 3.75%.

With `Cn1c(NC(=O)CNC(=O)C2CC2)nc2cc(Cl)ccc21`, the cytotoxicity at 70.5 h was -7.94%.

`Cc1nn(C)c2ncc(S(=O)(=O)N3CCCC(C)CC3)cc12` (stereo not drawn): the cytotoxicity at 70.5 h is -8.46%.

On to `COc1cc(NC(=O)NC2CCCC2)ccc1N1CCOC1=O`, for which the cytotoxicity at 70.5 h is -8.76%.

For `OCc1cc2ccccc2nc1N1CCCC1`, the cytotoxicity at 70.5 h was -15.5%.

`COc1cc(NC(=O)NC2CCOCC2)ccc1N1CCOC1=O`: the cytotoxicity at 70.5 h is 6.14%.

With `CCC(=O)CNC(=O)CCn1nc2ccccn2c1=O`, the cytotoxicity at 70.5 h was -1.88%.

Consider `Cc1cc2c(cc1C)OC(C(=O)NCCNC(=O)C1CCCC1)C2` (stereo not drawn), for which the cytotoxicity at 70.5 h was -6.43%.

With `Cc1cc(N2CCN(c3nc4ccccc4cc3CO)CC2)nc(C)n1`, the cytotoxicity at 70.5 h was -9.44%.

For the compound `COc1c(CNCc2ccc(N3CCOCC3)nc2)c(C)nn1C`, the cytotoxicity at 70.5 h is -5.76%.

For `Cc1cccc(N(CCC(N)=O)C(=O)c2cc(-n3cccn3)ccn2)c1`, the cytotoxicity at 70.5 h was -12%.

Turning to `O=C(CCc1cccnc1)Nc1ccc(OCC2CCOCC2)cc1`, the cytotoxicity at 70.5 h was -10.4%.

Turning to `CNS(=O)(=O)CC1CCCN1C(=O)c1ccc(C)c(C)c1` (stereo not drawn), the cytotoxicity at 70.5 h stood at 25.9%.

As for `CC(C)(C)c1csc(C2CCCCN2C(=O)CCn2cncn2)n1` (stereo not drawn), the cytotoxicity at 70.5 h was -5.87%.

On to `Cn1cc(Br)cc(NC(=O)CC2CCC2)c1=O`, for which the cytotoxicity at 70.5 h is -6.41%.

Regarding `Cc1cccc(N(CCC(N)=O)C(=O)c2ccnc(C)n2)c1`, the cytotoxicity at 70.5 h was -13.8%.

With `COCCn1cc(NC(=O)NC(C)CCc2ccccc2)ccc1=O` (stereo not drawn), the cytotoxicity at 70.5 h is -7.43%.

Regarding `O=C(NCc1cccnc1)NCC(O)c1ccccc1C(F)(F)F` (stereo not drawn), the cytotoxicity at 70.5 h is -9.13%.

As to `Cc1cc(N2CCC(N(C)Cc3cc(=O)c(O)co3)CC2)nc(C)n1`, the cytotoxicity at 70.5 h is -7%.

As for `CN(Cc1cc(=O)c(O)co1)C1CCCN(c2ccccc2)C1` (stereo not drawn), the cytotoxicity at 70.5 h was determined as 24.6%.

With `Cc1ccc(CN(C(=O)NCCNC(=O)c2cccnc2)C(C)C)o1`, the cytotoxicity at 70.5 h amounted to 14.6%.

`Cc1csc(C2CCCCN2C(=O)CCCn2cccn2)n1` (stereo not drawn): the cytotoxicity at 70.5 h is -11.4%.

Take `COC(=O)Cc1cccc(NC(=O)Cc2ccon2)c1`: the cytotoxicity at 70.5 h came to 23.7%.

Turning to `Cc1csc(C2CCCCN2C(=O)CCCn2cncn2)n1` (stereo not drawn), the cytotoxicity at 70.5 h is -9.21%.

As to `COc1cc(F)c(NC(=O)N(C)CCNC(=O)N(C)C)cc1F`, the cytotoxicity at 70.5 h was -0.221%.

In the case of `Cc1nn(C)c(C)c1NC(=O)Nc1cccnc1N1CCCC1`, the cytotoxicity at 70.5 h was -7.71%.

As for `Cc1cc(S(=O)(=O)N(C)CC(N)=O)ccc1Br`, the cytotoxicity at 70.5 h is -2.54%.

With `CCC(C)NC(=O)c1cc(S(N)(=O)=O)c(Br)s1` (stereo not drawn), the cytotoxicity at 70.5 h is -6.88%.

As to `CN(Cc1ccc2c(c1)OCCO2)Cn1nc(C(C)(C)C)ccc1=O`, the cytotoxicity at 70.5 h was 12.7%.

With `CN(C)S(=O)(=O)c1ccc2c(c1)N(Cc1ccccn1)CCC2`, the cytotoxicity at 70.5 h was -1.38%.

Regarding `CN(C)S(=O)(=O)c1ccc2c(c1)N(Cc1nccn1C)CCC2`, the cytotoxicity at 70.5 h was -6.79%.

As for `CN1CCN(c2ccnc3c(F)cc(Br)cc23)CC1`, the cytotoxicity at 70.5 h is 1.8%.

As for `O=C(CCc1cncc(F)c1)NS(=O)(=O)c1ccc(F)cc1F`, the cytotoxicity at 70.5 h is 8.87%.

In the case of `Cc1cc(F)cc(S(=O)(=O)NC(=O)CCc2cncc(F)c2)c1`, the cytotoxicity at 70.5 h is -4.33%.

On to `COc1cc(F)c(NC(=O)N(C)Cc2cc(C)on2)cc1F`, for which the cytotoxicity at 70.5 h was -5.99%.

In the case of `O=C(CN1CCC(OCC2CCCO2)CC1)NCC(F)(F)F` (stereo not drawn), the cytotoxicity at 70.5 h is -7.24%.

Take `CCNC(=O)CN1CCC(OCC2CCCO2)CC1` (stereo not drawn): the cytotoxicity at 70.5 h is -6.63%.

On to `CCc1nnc2n1CC(CNCc1nnc(C(C)(C)C)o1)CC2` (stereo not drawn), for which the cytotoxicity at 70.5 h was -6.78%.

Turning to `FC(F)(F)Cn1cc(NCc2cscn2)cn1`, the cytotoxicity at 70.5 h is -5.23%.

For the compound `CC(C)(C)n1cc(NCc2cscn2)cn1`, the cytotoxicity at 70.5 h is -6.29%.

Take `CC(C)c1nnc(NC(=O)N2CCN(C)CC2c2ccccc2)s1` (stereo not drawn): the cytotoxicity at 70.5 h is 9.58%.

Consider `CC(C)c1nnc(NC(=O)N2CCCC2c2ccncc2)s1` (stereo not drawn), for which the cytotoxicity at 70.5 h worked out at 20%.

In the case of `CN(C)C(CNC(=O)c1nc(N2CCOCC2)ncc1Cl)c1cccs1` (stereo not drawn), the cytotoxicity at 70.5 h is -8.97%.

On to `CNC(=O)NC(=O)C(C)N1CCCc2cc(OC)ccc2C1` (stereo not drawn), for which the cytotoxicity at 70.5 h is -13.9%.

Consider `COc1cc(C(C)=O)ccc1SCC(=O)Nc1ccccn1`, for which the cytotoxicity at 70.5 h is 21.7%.

`COc1cc2c(cc1OC)S(=O)(=O)N(Cc1cc(C)on1)C2=O`: the cytotoxicity at 70.5 h is -4.33%.

`COc1cc2c(cc1OC)S(=O)(=O)N(Cc1cnn(C)c1)C2=O`: the cytotoxicity at 70.5 h is -22.9%.

With `COc1ccc2c(c1)CCCN(C(C)C(=O)NC(C)C)C2` (stereo not drawn), the cytotoxicity at 70.5 h was -15.7%.

Turning to `CCc1ocnc1C(=O)Nc1ccc2ccn(CCN(C)C)c2c1`, the cytotoxicity at 70.5 h is -13.2%.

Take `COc1cc(C(C)=O)ccc1SCC(=O)Nc1ccc(C)cn1`: the cytotoxicity at 70.5 h is -7.73%.

`O=C(c1coc2ccccc12)N1CCS(=O)(=O)CC1`: the cytotoxicity at 70.5 h was -5.47%.

As to `NC(=O)c1ccc(OCCC(=O)NC2CCc3c(F)cccc32)cc1` (stereo not drawn), the cytotoxicity at 70.5 h stood at 21.4%.

On to `N#Cc1cccc(Cl)c1NCCc1n[nH]c(=O)[nH]1`, for which the cytotoxicity at 70.5 h was -3.93%.

For `N#Cc1cccc(Cl)c1NCCCc1nc(=O)[nH][nH]1`, the cytotoxicity at 70.5 h is -9.76%.

In the case of `COCCN(Cc1cccc(C#N)c1)Cc1nnsc1Cl`, the cytotoxicity at 70.5 h is 23%.

For the compound `CCCN(CCC)Cc1nnsc1Cl`, the cytotoxicity at 70.5 h was -13.7%.

In the case of `O=C(NCCc1cccs1)N1CCC[C@H]1CO`, the cytotoxicity at 70.5 h was -6.62%.

As to `CCN(Cc1nnsc1Cl)C(C)c1ccc(C#N)cc1` (stereo not drawn), the cytotoxicity at 70.5 h was -3.23%.

`COc1ccc2c(c1)CCCN(C(C)C(=O)N1CCCC1)C2` (stereo not drawn): the cytotoxicity at 70.5 h is -3.36%.

`CCC(C)(C)NC(=O)Cn1cc(C(N)=O)c(-c2ccccc2)n1`: the cytotoxicity at 70.5 h is -7.28%.

With `Cc1ncc2c(n1)CN(CCOc1ccc3c(c1)CCC(=O)N3)CC2`, the cytotoxicity at 70.5 h is -6.43%.

Consider `COc1ccc(C(=O)CCc2nc(C3CC3)no2)cc1`, for which the cytotoxicity at 70.5 h is -23.1%.

Take `COc1ccc(CCN2CC(n3nc(C)cc3C)C2)cc1`: the cytotoxicity at 70.5 h is -16.5%.

With `Cc1nnnn1-c1cc(NCc2cccc(C#N)c2)ccc1F`, the cytotoxicity at 70.5 h is -24.4%.

Consider `COc1ccccc1N1CCN(Cc2cnc3c(c2)c(C)nn3C)CC1`, for which the cytotoxicity at 70.5 h is -11.4%.

Regarding `O=C(CCc1nc(C2CC2)no1)c1ccc(F)c(F)c1`, the cytotoxicity at 70.5 h was -17.2%.

Take `Cc1cccc2c1C(=O)NC(c1cnc(C3CCC3)s1)N2` (stereo not drawn): the cytotoxicity at 70.5 h is -21.1%.

Turning to `CCS(=O)(=O)CCNC(=O)NC(C)c1ccc(C)s1` (stereo not drawn), the cytotoxicity at 70.5 h is -8.94%.

Turning to `CCS(=O)(=O)CCNC(=O)NC(C)c1cc(C)sc1C` (stereo not drawn), the cytotoxicity at 70.5 h is -15.4%.

Take `CC(C)c1noc(CCNC(=O)N2CCN(c3cccs3)CC2)n1`: the cytotoxicity at 70.5 h stood at 40.3%.

Consider `Cc1cc(C(=O)N(C)C)c2c(Br)cccc2n1`, for which the cytotoxicity at 70.5 h was -10.8%.

For `CN(Cc1cccs1)S(=O)(=O)c1ccc(C(F)(F)F)nc1`, the cytotoxicity at 70.5 h is -20.9%.

For `CN(CCn1cnnc1)S(=O)(=O)c1ccc(C(F)(F)F)nc1`, the cytotoxicity at 70.5 h was -15.6%.

`CN(CC(C)(C)C)S(=O)(=O)c1ccc(C(F)(F)F)nc1`: the cytotoxicity at 70.5 h was -25.1%.

Turning to `Cc1nn(C)c2ncc(CN3CCN(Cc4ccco4)CC3)cc12`, the cytotoxicity at 70.5 h is -18.7%.

Take `OC(COCc1ccco1)CN1CCC(Cn2cccn2)CC1` (stereo not drawn): the cytotoxicity at 70.5 h was -14.1%.

For `O=C(COCCOc1ccccc1)Nc1ccnn1CC1CCOC1` (stereo not drawn), the cytotoxicity at 70.5 h is -21.2%.

Regarding `CS(=O)(=O)c1cccc(OCC(=O)N2CCCC2c2ccc[nH]2)c1` (stereo not drawn), the cytotoxicity at 70.5 h is -7.78%.

Turning to `CN(Cc1cnn(C)c1)C(=O)c1cc2ccccc2c(=O)[nH]1`, the cytotoxicity at 70.5 h is -9.32%.

With `COc1ccc(Cl)cc1NC(=O)CNc1ccn(CC(N)=O)n1`, the cytotoxicity at 70.5 h worked out at 20.1%.

As to `Brc1cc(CNCc2nnc3n2CCC3)cs1`, the cytotoxicity at 70.5 h was -8.54%.

As to `O=C1NCCCCC1NCc1csc(-c2ccccn2)n1` (stereo not drawn), the cytotoxicity at 70.5 h was -12.2%.

These data come from ChEMBL document CHEMBL3507680, “University of Dundee, Gates Library screen for HepG2 cell viability”.
